Reference: PMC9413514, “Accessing Lipophilicity and Biomimetic Chromatography Profile of Biologically Active Ingredients of Botanicals Used in the Treatment of Inflammatory Bowel Disease” (Pharmaceuticals, 2022)

Legend:
[1] = target: T1, human serum albumin (HSA) (Homo sapiens, UniProt P02768); assay: HSA-HPAC assay (plasma protein binding); type: in vitro ADME; settings: Chiralpak-HSA, pH 7.4, 25 °C; spread is RSD in %
T1 construct: purchased ChromTech (Cedex, France) Chiralpak-HSA
From the text: (§1) The gradient retention times obtained by HSA-HPAC and AGP-HPAC assays were standardized using a calibration set of compounds with known percentage of plasma protein binding data and procedure described in our previously published study. […] This verification assured that the protein affinity indices obtained by HPAC assays depict not only unspecific generally lipophilicity-driven interactions, but also highly specific recognition forces responsible of enantioselectivity.
(§2) Stock solutions of analytes and calibration standards were prepared by dissolving 10 mg of each solute in 10 mL of methanol and kept at 4 °C. Working solutions were freshly prepared at the beginning of each day by dilution of the stock solutions to 100 μg/mL with methanol for TLC measurements or mobile phase for HPLC measurements. Before use, the samples were sonicated (Elmasonic XtraTT, Elma Schmidbauer) for 10 min at 25 °C and all working solutions were filtered through 0.2 µm polyethersulfone filters (Obrnuta faza). To protect analytes from photodegradation, the amber glass HPLC vials were used.
(§3) The binding of biologically active compounds to the plasma proteins was investigated using affinity chromatographic columns by ChromTech (Cedex, France) containing immobilized human serum albumin (HSA) (Chiralpak-HSA, length 50 mm, i.d. 4.6 mm, particle size 5 µm) and α1-acid glycoprotein (AGP) (Chiralpak-AGP, length 50 mm, i.d. 4.6 mm, particle size 5 µm) and Agilent HPLC 1100 instrument. The 20 mM potassium phosphate buffer with the pH adjusted to 7.4 and iso-propanol were used as mobile phase components A and B. Retention data were collected at 25.0 ± 0.1 °C using gradient program as follows: 0 min/0% B, 6 min/30% B, 15 min/30% B and 20 min/0% B. Injection volume was set at 10 µL and the measurements were carried out at 25.0 ± 0.1 °C with flow rate of 1.5 mL/min. The absorbance of the analytes during a chromatographic run was collected in the spectral range 200–400 nm, and the detection wavelength for each analyte was the one providing the maximum peak height.

[2] = Miniaturized shake-flask method (n-octanol/PBS pH 7.4) with HPLC analysis; type: physicochemical; settings: for logD at 1 h: n-octanol/PBS 20 mM pH 7.4, 25 °C, spread is RSD in %, read-out: log D7.4 ± RSD (%) (n = 3); for Δ log D7.4 (lower than curcumin): compared to curcumin
Experimental: Stock solution of biologically active ingredients of botanicals used in IBD treatment were prepared using dimethylsulfoxide in concentration of 2 mg/mL. Working solutions were prepared daily by dilution of the stock solutions with PBS (20 mM, pH 7.4) pre-saturated with n-octanol. Before the injection into the HPLC system all solutions were sonicated for 15 min at room temperature in Elmasonic XtraTT (Elma Schmidbauer, Singen, Germany) and filtered through 0.2 μm polyethersulfone filters (Obrnuta faza, Pazin, Croatia).
The pre-saturated solutions of n-octanol and PBS (20 mM, pH 7.4) were used for determination of logarithm of distribution coefficient (log D7.4). The n-octanol and aqueous phase (mixture 1:1, v/v) were mutually saturated for 24 h in an orbital shaker-incubator ES-20/60 (Biosan, Riga, Latvia) at 100 oscillations per min at 25.0 ± 0.1 °C. The prepared mixture was left resting for at least 12 h in the thermostat at 25.0 ± 0.1 °C to ensure complete separation of the two phases. Until analysis, separated saturated solutions were kept in refrigerator at 4 °C.
Shake-flask procedure was conducted in amber 2 mL HPLC vials. 300 μL of the working solution was added to 1500 μL of n-octanol pre-saturated with PBS. To prevent material loss due to volatilisation, the two-phase system nearly filled the entire volume of the test vessels. All n-octanol–buffer mixtures were first vortexed for 1 min and then shaken for 1 h (150 oscillations per min) at room temperature (25.0 ± 0.1 °C) to reach equilibrium and phase distribution. Afterward, the samples were centrifuged using a Z 326 K tabletop centrifuge (HERMLE Labortechnik, Wehingen, Germany) for 30 min at 4000× g and 25 °C to ensure that possible emulsions were removed.
After equilibration and phase separation, the aqueous phase of all samples was analysed on an Agilent HPLC 1100 (Agilent Technologies, Waldbronn, Germany) with diode array detection. Analysis was conducted with a Zorbax SB C18 column (length 150 mm, i.d. 4.6 mm, particle size 5 μm) by Agilent Technologies. 10 min chromatographic runs were performed at 25.0 ± 0.1 °C in isocratic mode using a methanol/water mixture (60/40, v/v) with addition of 0.1% of formic acid as mobile phase modifier at a flow rate of 1.0 mL/min. The mobile phase was filtered through a membrane filter, no. 66, diameter 47 mm, pore size 0.45 µm (Supelco, Bellefonte, PA, USA). The vials were placed in the rack on the autosampler at 25 °C. The injection volume was 10 µL, with a needle offset of 0.5 mm. To avoid any carryover of the analyte-containing n-octanol phase, the outside of the syringe was subsequently washed in methanol before injection. The absorbance of the analytes during a chromatographic run was collected in the spectral range 200–400 nm, and the detection wavelength for each analyte was the one providing the maximum peak height.

[3] = C18-TLC assay (hydrophobicity); type: physicochemical; settings: for RM0 (TLC hydrophobicity index, intercept of linear equation): RP-18 TLC, PBS pH 7.4/methanol, extrapolated to zero organic modifier
From the text: In TLC measurements RF value depends on the chemical structure of analyte and its interaction with stationary and mobile phase. […] As it was expected, with increase in the percentage of organic modifier in the mobile phase the increase in RF values can be seen with accompanied decrease in RM values expressed as RM = log(1/RF - 1). Measured RF values were in the range from 0.1 to 0.7 obtained in a wide range of mobile phase organic modifier concentrations. […] Increasing concentration of the organic modifier in the mobile phase caused a slower decrease in the RM values for less hydrophobic analytes than for more hydrophobic ones. […] Increase in the hydrophobicity within curcuminoids and andrographolides is related to increase in lipophilicity determined by shake-flask method (Table 3). Stock solutions of analytes and calibration standards were prepared by dissolving 10 mg of each solute in 10 mL of methanol and kept at 4 °C. Working solutions were freshly prepared at the beginning of each day by dilution of the stock solutions to 100 μg/mL with methanol for TLC measurements or mobile phase for HPLC measurements. Before use, the samples were sonicated (Elmasonic […]) for 10 min at 25 °C and all working solutions were filtered through 0.2 μm polyethersulfone filters (Obrnuta faza). To protect analytes from photodegradation, the amber glass HPLC vials were used. Analyses were carried out using a commercially available 10 cm x 20 cm RP-18 TLC plates with fluorescent indicator (Merck KGaA). 5 μL of each working solution ([…]) was applied to the plates as 5 mm bends, 10 mm from the lower edge and 15 mm from sides of plates. The mobile phases were prepared by mixing the respective amounts of PBS (20 mM, pH 7.4) and methanol from 50% to 80% of organic solvent in 5% increment. The vertical flat-bottom chamber ([…], Switzerland) with a stainless-steel lid was saturated with mobile phase for 30 min. The plates were developed to a distance of 9 cm at room temperature, dried in the open air for 5 min and visualized under λ = 254 nm UV light (UV Cabinet with Dual Wavelength UV lamp by Camag).

[4] = system: α1-acid glycoprotein (AGP); assay: AGP-HPAC assay (plasma protein binding); type: in vitro ADME; settings: Chiralpak-AGP, pH 7.4, 25 °C; spread is RSD in %
From the text: as §1, §2, §3

T1 sequence (P02768 25-609): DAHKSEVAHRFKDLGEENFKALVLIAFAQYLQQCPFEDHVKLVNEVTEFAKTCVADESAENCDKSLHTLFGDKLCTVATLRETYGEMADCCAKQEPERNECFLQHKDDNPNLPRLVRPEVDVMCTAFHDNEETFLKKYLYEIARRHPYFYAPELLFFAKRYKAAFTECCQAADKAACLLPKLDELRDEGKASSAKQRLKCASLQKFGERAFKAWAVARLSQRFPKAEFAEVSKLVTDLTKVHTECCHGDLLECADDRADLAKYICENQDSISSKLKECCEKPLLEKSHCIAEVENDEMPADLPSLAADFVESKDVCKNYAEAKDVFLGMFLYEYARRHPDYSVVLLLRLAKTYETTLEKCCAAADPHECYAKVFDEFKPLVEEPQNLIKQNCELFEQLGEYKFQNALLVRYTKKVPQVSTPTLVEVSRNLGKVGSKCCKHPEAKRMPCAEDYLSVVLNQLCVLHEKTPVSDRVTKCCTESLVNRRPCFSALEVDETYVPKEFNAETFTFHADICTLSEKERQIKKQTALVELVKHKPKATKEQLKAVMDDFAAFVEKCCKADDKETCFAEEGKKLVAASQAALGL

Structure (SMILES)	HSA Binding ± RSD (%) (n = 3) [1]	logD at 1 h [2]	RM0 (TLC hydrophobicity index, intercept of linear equation) [3]	AGP Binding ± RSD (%) (n = 3) [4]	Δ log D7.4 (lower than curcumin) [2]	Δ log D7.4 (increase compared to andrographolide) ([2]; compared to andrographolide)	difference in RM0 values versus andrographolide ([3]; compared to andrographolide)
C=C1CC[C@@H]2[C@](C)(CO)[C@H](O)CC[C@@]2(C)[C@@H]1C/C=C1/C(=O)OC[C@H]1O [Andrographolide, andrographolide]	80.07 ± 0.74%	1.32	y = −0.0302 x + 2.0908	37.13 ± 1.11%			
O=C(C=Cc1ccc(O)cc1)CC(=O)C=Cc1ccc(O)cc1 [Bisdemetoxycurcumin, bisdemetoxycurcumin]	98.37 ± 0.10%	1.72	y = −0.0503 x + 4.1751	83.14 ± 1.15%	0.22 units		
COc1cc(/C=C/C(=O)CC(=O)/C=C/c2ccc(O)cc2)ccc1O [Demetoxycurcumin, demetoxycurcumin]	97.97 ± 0.35%	1.52	y = −0.0504 x + 4.1781	82.92 ± 1.15%	0.42 units		
C=C1CC[C@@H]2[C@](C)(CO[C@@H]3O[C@H](CO)[C@@H](O)[C@H](O)[C@H]3O)CCC[C@@]2(C)[C@@H]1CCC1=CCOC1=O [Neoandrographolide, neoandrographolide]	87.71 ± 0.41%	1.51	y = −0.0334 x + 2.1672	64.95 ± 0.41%		0.19 units	0.08 units
O=C(/C=C/C=C/c1ccc2c(c1)OCO2)N1CCCCC1 [Piperine, piperine]	95.48 ± 0.41%	1.67	y = −0.0526 x + 4.4044	71.98 ± 1.33%			
